Assay results from patent publication US8283373B2, “Inhibitors of cytosolic phospholipase A2” (Pfizer Inc., priority 2005, dated 2012).

Assays:
[1] = target: T1, cPLA2α (Homo sapiens, UniProt P47712); assay: GLU Micelle Assay; format: biochemical
T1 sequence (P47712 1-749): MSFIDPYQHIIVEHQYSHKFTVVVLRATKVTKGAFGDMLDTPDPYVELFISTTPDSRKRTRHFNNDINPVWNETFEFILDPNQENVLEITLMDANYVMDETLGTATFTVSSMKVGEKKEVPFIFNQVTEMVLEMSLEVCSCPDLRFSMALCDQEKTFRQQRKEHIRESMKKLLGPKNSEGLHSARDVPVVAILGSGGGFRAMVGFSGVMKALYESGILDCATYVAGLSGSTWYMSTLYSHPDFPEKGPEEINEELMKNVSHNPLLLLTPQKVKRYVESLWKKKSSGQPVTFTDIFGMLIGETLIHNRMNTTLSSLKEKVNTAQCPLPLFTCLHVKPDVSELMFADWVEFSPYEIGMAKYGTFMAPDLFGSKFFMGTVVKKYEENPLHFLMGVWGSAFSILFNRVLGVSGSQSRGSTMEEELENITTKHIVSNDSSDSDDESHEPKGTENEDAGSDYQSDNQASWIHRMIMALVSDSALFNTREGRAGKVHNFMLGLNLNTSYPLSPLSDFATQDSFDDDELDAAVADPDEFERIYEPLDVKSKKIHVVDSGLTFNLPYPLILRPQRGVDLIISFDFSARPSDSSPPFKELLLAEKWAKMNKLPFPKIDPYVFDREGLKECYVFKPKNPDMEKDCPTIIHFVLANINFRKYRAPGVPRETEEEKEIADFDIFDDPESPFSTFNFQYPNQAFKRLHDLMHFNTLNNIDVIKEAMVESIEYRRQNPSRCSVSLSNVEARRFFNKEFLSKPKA
Experimental: The assay was carried in a 96-well format using a fluorescent plate reader with a 355 nm excitation filter and a 460 nm emission filter (Lab Systems Fluoroscan II, Helsinki, Finland). The assay buffer contained 940 μM Triton X-100, 50 mM Hepes pH 7.4, 0.3 mM EDTA, 1 mM CaCl2 and 300 mM KCl. DTPC (1,2-O-tetradecyl-sn-glycero-3-phosphocholine, Avanti) at a final concentration of 120 μM was added the day of the experiment and GLU (7-Hydroxycoumarinyl-γ-linolenate, Biomol Research Lab, Inc.) at a final concentration of 90 μM was added immediately prior to each assay.
Compounds (10 μL) dissolved in DMSO were placed in duplicate wells of a black 96-well plate. Wells corresponding to the positive and negative controls contained DMSO without inhibitors. Just prior to the experiment, 200 μL assay buffer containing 90 μM GLU and 120 μM DTPC was added to all wells in the assay plate. Assay buffer (50 μL) was added to the negative, and 50 μL cPLA2α solution ([…] in assay buffer) was added to all other wells to initiate the reaction. The final concentration of enzyme was 1 μg/ml. The content of each well was mixed gently during the addition of the enzyme, and the plate was rapidly transferred to the fluorescent plate reader. The increase in fluorescence was read every 4 min for 84 min. The slope of the resulting line was determined and the inhibition was calculated using the equation below: Percent Inhibition=[1−(slope with inhibitor−slope negative control)/(slope positive control−slope negative control)]×100 Rat Whole Blood Assay

[2] = system: primary cerebellar granule neurons; assay: Oxygen-glucose deprivation (OGD) in cultured cerebellar granule neurons; format: cell-based, rat; settings: for percent cell death (lactate dehydrogenase release), Avg.: OGD 2 hours, control 14, OGD 51
Experimental: Primary cerebellar granule neurons were isolated from P5-8 rat pups. Briefly, cerebelli were collected and pooled in ice-cold phosphate buffer saline (PBS) without Ca^2+ and Mg^2+. The tissue was finely chopped and transferred to an enzymatic dissociation media containing 20 IU/ml papain in Earle's balanced salt solution (Worthington Biochemical, Freehold, N.J.) and incubated for 30 minutes at 37° C. After enzymatic dissociation, the papain solution was aspirated and the tissue mechanically triturated with a fire-polished Pasteur pipette in complete media [Neurobasal Medium with B-27 supplement (Gibco, Grand Island, N.Y.), penicillin/streptomycin, aphidicolin, glutamate, potassium chloride] containing 2,000 IU/ml DNase and 10 mg/ml ovomucoid protease inhibitor. Single-cell suspensions in complete media were plated on pre-coated poly-L-ornithine/laminin 24-well plates (Becton-Dickinson, Bedford, Mass.) at a density of
5.0×10^5 cells/well. Cells were maintained for two weeks prior to experimentation.
Cultures were treated with Compound A at various concentrations, 60 minutes before OGD. Media was removed and replaced with deoxygenated buffer in an anaerobic chamber (80% nitrogen, 10% hydrogen, 10% carbon dioxide gas mixture). Fresh Compound A, Example 34 or Example 41 was added to the cultures and maintained in the anaerobic chamber for 2 hours. At the end of the incubation, fresh media was exchanged and fresh Compound A was added. Cultures were maintained for an additional 24 hours in a normoxic incubator. Cell death was determined by measuring lactate dehydrogenase release into the media 24 hours later (Roche Biochemicals). In the table below, values are shown for the control, OGD, various concentrations of Compound A, and MK801, a NMDA receptor antagonist, which is a positive control.

[3] = system: TXB2; assay: Rat Whole Blood Assay (A23187-stimulated TXB2); format: cell-based; settings: Rattus norvegicus; A23187 5 μM
Experimental: Fresh blood was collected in heparinized tubes by cardiac puncture of male Sprague-Dawley rats. Aliquots of blood (0.6 mL) were incubated with either 6 μL solvent (DMSO), or 6 μL of test compounds at various concentrations for 15 minutes at 37° C. This was followed by incubation of the blood with 6 μL of calcium ionophore, A23187 (Sigma C-7522) diluted in DMSO for 10 min at 37° C. The final concentration of A23187 was 5 μM. DMSO (6 μL) was added in the unstimulated controls. The reactions were stopped by mixing 60 μL cold EDTA to give a final concentration of 20 mM. The blood was centrifuged at 6,500 rpm for 10 min on a microcentrifuge to obtain plasma. A 70 μL aliquot of plasma was mixed with 400 μL cold methanol for protein precipitation. After incubation at −80° C. for 30 min, the supernatant was obtained by centrifuging at 6,500 rpm for 10 min, and was assayed for TXB2 according to the manufacturer's procedure (Assay Designs, Inc.'s ELISA kit #900-002).

IC50 [1] | IC50 [3] | Structure (SMILES) | protection of cultured neurons from OGD-induced cell death [2] | percent cell death (lactate dehydrogenase release), Avg. ([2]; 0.1 μM) | percent cell death (lactate dehydrogenase release), Avg. ([2]; 0.3 μM) | percent cell death (lactate dehydrogenase release), Avg. ([2]; 1 μM) | percent cell death (lactate dehydrogenase release), Avg. ([2]; 3 μM)
22 nM |  | O=C(O)c1ccc(CCCc2c(CCNS(=O)(=O)Cc3ccccc3-c3cccc4ncccc34)n(C(c3ccccc3)c3ccccc3)c3ccc(Cl)cc23)cc1 [Example 41, 4-{3-[5-chloro-1-(diphenylmethyl)-2-(2-{[(2-quinolin-5-ylbenzyl)sulfonyl]amino}ethyl)-1H-indol-3-yl]propyl}benzoic acid] | effective in protecting cultured neurons from OGD-induced cell death | 40% | 33% | 30% | 24%
16 nM | 30 nM | O=C(O)c1ccc(CCCc2c(CCNS(=O)(=O)Cc3ccccc3-c3cccc4cccnc34)n(C(c3ccccc3)c3ccccc3)c3ccc(Cl)cc23)cc1 [Example 34, 4-{3-[5-chloro-1-(diphenylmethyl)-2-(2-{[(2-quinolin-8-ylbenzyl)sulfonyl]amino}ethyl)-1H-indol-3-yl]propyl}benzoic acid] | effective in protecting cultured neurons from OGD-induced cell death | 35% | 28% | 21% | 18%
